Results published in patent US7662417B2, “Preservatives and protective systems” (Laboratorios Miret, S.A., priority 2002, dated 2010).

Tests used:
[1] = system: Aspergillus niger ATCC 14604; experiment: standard CMI evaluation; type: cell-based; details: tested at 683-8 mg/L, both products contain 21% LAE
Experimental: (§1) A precipitate of xanthan/LAE is formed when 150 mL of a solution containing 1.3% of xanthan gum and 300 mL of a solution containing 0.3% of LAE are mixed. Then, 2.5 g of white solid are isolated by filtration.

[2] = system: Bacillus cereus ATCC 9634; experiment: standard CMI evaluation; type: cell-based; details: tested at 683-8 mg/L, both products contain 21% LAE
Experimental: as §1

[3] = system: Candida albicans ATCC 10231; experiment: standard CMI evaluation; type: cell-based; details: tested at 683-8 mg/L, both products contain 21% LAE
Experimental: as §1

[4] = system: Citrobacter intermedium CECT 401; experiment: standard CMI evaluation; type: cell-based; details: tested at 683-8 mg/L, both products contain 21% LAE
Experimental: as §1

[5] = system: Enterobacter aerogenes CECT 684; experiment: standard CMI evaluation; type: cell-based; details: tested at 683-8 mg/L, both products contain 21% LAE
Experimental: as §1

[6] = system: Escherichia coli ATCC 8739; experiment: standard CMI evaluation; type: cell-based; details: tested at 683-8 mg/L, both products contain 21% LAE
Experimental: as §1

[7] = system: Pseudomonas aeruginosa ATCC 9023; experiment: standard CMI evaluation; type: cell-based; details: tested at 683-8 mg/L, both products contain 21% LAE
Experimental: as §1

[8] = system: Rhodotorula ruba CECT 1158; experiment: standard CMI evaluation; type: cell-based; details: tested at 683-8 mg/L, both products contain 21% LAE
Experimental: as §1

[9] = system: Salmonella typhimurium ATCC 16028; experiment: standard CMI evaluation; type: cell-based; details: tested at 683-8 mg/L, both products contain 21% LAE
Experimental: as §1

[10] = system: Staphylococcus aureus ATCC 6538; experiment: standard CMI evaluation; type: cell-based; details: tested at 683-8 mg/L, both products contain 21% LAE
Experimental: as §1

[11] = metabolism in rats; type: in vivo
[12] = toxicological studies; type: in vivo; details: animals and humans

CCCCCCCCCCCC(=O)N[C@@H](CCCN=C(N)N)C(=O)OCC.Cl [LAE, ethyl ester of the lauramide of the arginine monohydrochloride]
CMI [1]: 170 mg/L
CMI [2]: 128 mg/L
CMI [3]: 128 mg/L
CMI [4]: 128 mg/L
CMI [5]: 128 mg/L
CMI [6]: 128 mg/L
CMI [7]: 256 mg/L
CMI [8]: 128 mg/L
CMI [9]: 128 mg/L
CMI [10]: 128 mg/L
absorption and metabolism [11]: fast absorption and metabolisation into naturally-occurring amino acids and the fatty acid lauric acid
toxicity [12]: completely harmless
